The values that follow come from patent US9210927B2, “Pesticidal compositions and processes related thereto” (Dow AgroSciences LLC, priority 2013, dated 2015).

Holding throughout (type): in vivo
One test relates to BAW (Spodoptera exigua). Description: Bioassays on Beet Armyworm (BAW), 128-well diet tray assay. The note with it: Spodoptera exigua, 168 h, read-out: BAW Rating. The method, boiled down:
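Diet surface dosed at 50 μg/cm^2 (acetone-water 90:10 vehicle), dried, then infested with second-instar larvae, one to five per well. After five to seven days at 25° C. under 14:10 light-dark, mortality per well was scored and averaged over eight wells.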

A further test has as its system CEW (Helicoverpa zea). Description: Bioassays on Corn Earworm (CEW), 128-well diet tray assay. The note with it: Helicoverpa zea, 168 h; percent mortality, second instar larvae, 50 μg/cm^2 on artificial diet, five to seven days, 25° C.; read-out: CEW Rating. The method, boiled down:
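Percent larval mortality, averaged across eight wells, read after five to seven days at 25 °C under 14:10 light-dark. Each well held one to five second-instar larvae on diet surface-dosed at 50 μg/cm^2 (compound applied in acetone-water 90:10, then dried).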

The test system of the next test is GPA (Myzus persicae). Description: Bioassays on Green Peach Aphid (GPA), foliar spray on cabbage seedlings. The note with it: 72 h, corrected % control (Abbott), 200 ppm spray on cabbage seedlings, three days, read-out: GPA Rating. The method, boiled down: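 Activity given as Abbott-corrected % control, from live aphid counts versus solvent-only plants three days after treatment at about 25° C. Compounds were applied at 200 ppm (acetone/MeOH diluted in 0.025% aqueous Tween 20) as a runoff spray on aphid-infested cabbage seedlings, four replicates each.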

Molecules are shown by their SMILES.

Take `O=C(NCc1ccc(/C=C/C(c2cc(Cl)c(F)c(Cl)c2)C(F)(F)F)cc1Cl)C1CC1` (stereo not drawn) [CC15]: the pest or weed control at 50 µg/cm2 with BAW (Spodoptera exigua) and in the test on CEW (Helicoverpa zea) was 50 to 100% throughout. In the test on GPA (Myzus persicae), the pest or weed control at 200 ppm was 0 to 80%.
As to `O=C(NCc1ccc(/C=C/C(c2ccc(Cl)c(Cl)c2)C(F)(F)F)cc1Cl)C1CC1` (stereo not drawn) [CC17], the pest or weed control at 50 µg/cm2 in the test with BAW (Spodoptera exigua) and in the test with CEW (Helicoverpa zea) was 50 to 100% throughout. Moreover, in the test with GPA (Myzus persicae), the pest or weed control at 200 ppm is 0 to 80%.
Take `O=C(CC(F)(F)F)NCc1ccc(/C=C/C(c2ccc(Cl)c(Cl)c2)C(F)(F)F)cc1Cl` (stereo not drawn) [CC18]: the pest or weed control at 50 µg/cm2 in the test with BAW (Spodoptera exigua) and in the test with CEW (Helicoverpa zea) was 50 to 100% throughout. Further, in the test with GPA (Myzus persicae), the pest or weed control at 200 ppm was in the range of 0 to 80%.
Consider `CSCCC(=O)NCc1ccc(/C=C/C(c2cc(Cl)c(Cl)c(Cl)c2)C(F)(F)F)cc1Cl` (stereo not drawn) [CC19], for which the pest or weed control at 50 µg/cm2 in the test on BAW (Spodoptera exigua) and in the test with CEW (Helicoverpa zea) was 50 to 100% each time. Besides, the pest or weed control at 200 ppm in the test on GPA (Myzus persicae) lay in the range of 0 to 80%.
For `O=C(NCc1ccc(/C=C/C(c2cc(Cl)c(Cl)c(Cl)c2)C(F)(F)F)cc1C(F)(F)F)C1CC1` (stereo not drawn) [CC22], the pest or weed control at 50 µg/cm2 in the test with BAW (Spodoptera exigua) and in the test with CEW (Helicoverpa zea) was 50 to 100% throughout. Besides, the pest or weed control at 200 ppm in the test on GPA (Myzus persicae) is 0 to 80%.
On to `O=C(NCc1ccc(/C=C/C(c2cc(Cl)c(Cl)c(Cl)c2)C(F)(F)F)cc1C(F)(F)F)c1cccnc1` (stereo not drawn) [CC23], for which the pest or weed control at 50 µg/cm2 with BAW (Spodoptera exigua) and in the test on CEW (Helicoverpa zea) was 50 to 100% each time. For the same molecule, the pest or weed control at 200 ppm in the test with GPA (Myzus persicae) was 0 to 80%.
Turning to `O=C(CC(F)(F)F)NCc1ccc(/C=C/C(c2cc(Cl)c(Cl)c(Cl)c2)C(F)(F)F)cc1Br` (stereo not drawn) [CC25], the pest or weed control at 50 µg/cm2 in the test on BAW (Spodoptera exigua) and in the test with CEW (Helicoverpa zea) was 50 to 100% throughout. Besides, the pest or weed control at 200 ppm with GPA (Myzus persicae) was 0 to 80%.
`O=C(C1CC1)N(Cc1ccccn1)Cc1ccc(/C=C/C(c2cc(Cl)c(Cl)c(Cl)c2)C(F)(F)F)cc1C(F)(F)F` (stereo not drawn) [CC29, (E)-N-(Pyridin-2-ylmethyl)-N-(4-(4,4,4-trifluoro-3-(3,4,5-trichlorophenyl)but-1-enyl)-2-(trifluoromethyl)benzyl)cyclopropanecarboxamide]: the pest or weed control at 50 µg/cm2 in the test with BAW (Spodoptera exigua) and in the test on CEW (Helicoverpa zea) was 50 to 100% each time. Further, the pest or weed control at 200 ppm with GPA (Myzus persicae) was in the range of 0 to 80%.
Regarding `CCNC(=O)NCc1ccc(/C=C/C(c2cc(Cl)c(Cl)c(Cl)c2)C(F)(F)F)cc1C(F)(F)F` (stereo not drawn) [CC32], the pest or weed control at 50 µg/cm2 in the test on BAW (Spodoptera exigua) and with CEW (Helicoverpa zea) was 50 to 100% throughout. In addition, the pest or weed control at 200 ppm in the test with GPA (Myzus persicae) was 0 to 80%.
For the molecule `CCNC(=O)NCc1ccc(/C=C/C(c2cc(Cl)c(Cl)c(Cl)c2)C(F)(F)F)cc1Br` (stereo not drawn) [CC33], the pest or weed control at 50 µg/cm2 in the test on BAW (Spodoptera exigua) and in the test with CEW (Helicoverpa zea) was 50 to 100% in each case. In the test with GPA (Myzus persicae), the pest or weed control at 200 ppm fell in the range of 0 to 80%.
Turning to `O=C(NCc1ccc(/C=C/C(c2cc(Cl)c(Cl)c(Cl)c2)C(F)(F)F)cc1Cl)N1CCOCC1` (stereo not drawn) [CC34], the pest or weed control at 50 µg/cm2 in the test with BAW (Spodoptera exigua) and with CEW (Helicoverpa zea) was 50 to 100% each time. In addition, the pest or weed control at 200 ppm in the test with GPA (Myzus persicae) fell in the range of 0 to 80%.
Consider `FC(F)(F)C(/C=C/c1ccc(CNc2ccccn2)c(Cl)c1)c1cc(Cl)c(Cl)c(Cl)c1` (stereo not drawn) [CC43, (E)-N-(2-Chloro-4-(4,4,4-trifluoro-3-(3,4,5-trichlorophenyl)but-1-en-1-yl)benzyl)pyridin-2-amine], for which the pest or weed control at 50 µg/cm2 in the test with BAW (Spodoptera exigua) lay in the range of 50 to 100%; in the test on CEW (Helicoverpa zea) it was 0 to 50%. In the test with GPA (Myzus persicae), the pest or weed control at 200 ppm fell in the range of 0 to 80%.
In the same order, the values of `O=C(CC(F)(F)F)NCc1ncc(/C=C/C(c2cc(Cl)c(Cl)c(Cl)c2)C(F)(F)F)cc1Cl` (stereo not drawn) [CC44, (E)-N-((3-Chloro-5-(4,4,4-trifluoro-3-(3,4,5-trichlorophenyl)-but-1-en-1-yl)pyridin-2-yl)methyl)-3,3,3-trifluoropropanamide] are 50 to 100%, 50 to 100% and 0 to 80%.
For `FC(F)(F)C(/C=C/c1ccc(-n2cncn2)cc1)c1ccc(Cl)c(Cl)c1` (stereo not drawn) [DC12], the pest or weed control at 50 µg/cm2 with BAW (Spodoptera exigua) and in the test on CEW (Helicoverpa zea) was 50 to 100% throughout. In the test on GPA (Myzus persicae), the pest or weed control at 200 ppm is 0 to 80%.
